Assay results as given in US20250381179A1, “CHROMAN-BASED COMPOUNDS FOR TREATING CANCER” (priority 2024, published 2025).
“Also recorded” adds a separate entry of the source.

Assay: Phase 1 study: safety and tolerability (TEAEs, NCI CTCAE v5.0)
Protocol: The study employed an open-label, 3+3 design, with the option of adding backfill patients to each cohort cleared and deemed safe. […] Tumor responses were assessed every 2 cycles using RECIST v1.1 criteria. […] The study also involves an ongoing dose escalation study where participants receive 100 mg, 200 mg, 300 mg, 400 mg, and 600 mg once daily (QD) dose levels.
Safety was assessed through the analysis of the reported incidence of treatment-emergent AEs. Treatment-emergent AEs are those with an onset on or after the initiation of therapy and will be graded according to NCI CTCAE Version 5.0. Other safety endpoints, including laboratory results, vital signs, and ECG findings, were summarized for all patients in the Safety set.

[1] = Cohort 2/200 mg QD, patient 4, first listed event
[2] = Cohort 2/200 mg QD, patient 4, second listed event
[3] = Cohort 3/300 mg QD, patient 1, first listed event
[4] = Cohort 3/300 mg QD, patient 1, second listed event

O=C1CC[C@H](N2Cc3cc(N4CCN(CC5CCN(c6ccc([C@@H]7c8ccc(O)cc8OC[C@@H]7c7ccccc7)cc6F)CC5)CC4)ccc3C2=O)C(=O)N1 [compound (1-g), (S)-3-(5-(4-((1-(2-fluoro-4-((3S,4R)-7-hydroxy-3-phenylchroman-4-yl)phenyl)piperidin-4-yl)methyl)piperazin-1-yl)-1-oxoisoindolin-2-yl)piperidine-2,6-dione]
Duration of TEAE leading to dose interruption: Pain in extremity [1]: 56 days | Related to Compound (1-g), TEAE leading to dose interruption: Pain in extremity [1]: No | CTCAE Grade of TEAE leading to dose interruption: Pain in extremity [2]: 2 | Related to Compound (1-g), TEAE leading to dose interruption: Pain in extremity [2]: No | participants with TEAEs that led to dose interruption (Cohort 3 (300 mg QD)): 2 participants | CTCAE Grade of TEAE leading to dose interruption: Anaemia (Cohort 3/300 mg QD, patient 1): 3 | Related to Compound (1-g), TEAE leading to dose interruption: Anaemia (Cohort 3/300 mg QD, patient 1): No | CTCAE Grade of TEAE leading to dose interruption: Acute kidney injury [3]: 3 | Duration of TEAE leading to dose interruption: Acute kidney injury [3]: 6 days | Related to Compound (1-g), TEAE leading to dose interruption: Acute kidney injury [3]: No | CTCAE Grade of TEAE leading to dose interruption: Acute kidney injury [4]: 3 | Duration of TEAE leading to dose interruption: Acute kidney injury [4]: 7 days | Related to Compound (1-g), TEAE leading to dose interruption: Acute kidney injury [4]: No | CTCAE Grade of TEAE leading to dose interruption: Muscular weakness (Cohort 3/300 mg QD, patient 2): 2 | CTCAE Grade of TEAE leading to dose interruption: Upper respiratory tract infection (Cohort 3/300 mg QD, patient 2): 2 | Duration of TEAE leading to dose interruption: Upper respiratory tract infection (Cohort 3/300 mg QD, patient 2): 8 days | Related to Compound (1-g), TEAE leading to dose interruption: Muscular weakness (Cohort 3/300 mg QD, patient 2): No | Related to Compound (1-g), TEAE leading to dose interruption: Upper respiratory tract infection (Cohort 3/300 mg QD, patient 2): No | participants with TEAEs that led to dose interruption (Cohort 4 and 5 (400, 600 mg QD)): No participant experienced TEAEs that led to dose interruption | Constipation, Related-TEAE All Grades (N = 37): 3 n (%) | Constipation, Related-TEAE Grade ≥ 3 (N = 37): 0 n (%) | Constipation, TEAE All Grades (N = 37): 4 (11) n (%) | Constipation, TEAE Grade ≥ 3 (N = 37): 0 n (%) | Dehydration, Related-TEAE All Grades (N = 37): 0 n (%) | Dehydration, Related-TEAE Grade ≥ 3 (N = 37): 0 n (%) | Dehydration, TEAE All Grades (N = 37): 5 (14) n (%) | Dehydration, TEAE Grade ≥ 3 (N = 37): 2 (5) n (%) | Fatigue, Related-TEAE All Grades (N = 37): 2 n (%) | Fatigue, Related-TEAE Grade ≥ 3 (N = 37): 0 n (%) | Fatigue, TEAE All Grades (N = 37): 6 (16) n (%) | Fatigue, TEAE Grade ≥ 3 (N = 37): 1 (3) n (%) | Grade 5 event of seizure (N = 37): 1 event | Hot flush, Related-TEAE All Grades (N = 37): 5 n (%) | Hot flush, Related-TEAE Grade ≥ 3 (N = 37): 0 n (%) | Hot flush, TEAE All Grades (N = 37): 5 (14) n (%) | Hot flush, TEAE Grade ≥ 3 (N = 37): 0 n (%) | Nausea, Related-TEAE All Grades (N = 37): 5 n (%) | Nausea, Related-TEAE Grade ≥ 3 (N = 37): 0 n (%) | Nausea, TEAE All Grades (N = 37): 7 (19) n (%) | Nausea, TEAE Grade ≥ 3 (N = 37): 0 n (%) | Neutrophil count decreased, Related-TEAE All Grades (N = 37): 4 n (%) | Neutrophil count decreased, Related-TEAE Grade ≥ 3 (N = 37): 0 n (%) | Neutrophil count decreased, TEAE All Grades (N = 37): 6 (16) n (%) | Neutrophil count decreased, TEAE Grade ≥ 3 (N = 37): 1 (3) n (%) | TEAE constipation, participants (N = 37): 10.8% | TEAE dehydration, participants (N = 37): 13.5% | TEAE fatigue, participants (N = 37): 16.2% | TEAE hot flush, participants (N = 37): 13.5% | TEAE nausea, participants (N = 37): 18.9% | TEAE neutrophil count decreased, participants (N = 37): 16.2% | compound-related SAEs (N = 37): No compound (1-g)-related SAEs were observed | deaths reported, all assessed as unrelated to compound (1-g) (N = 37): 3 deaths | dose reductions or treatment discontinuations due to TEAEs (N = 37): no dose reductions or treatment discontinuations due to TEAEs | grade of treatment-related AEs (N = 37): All treatment-related AEs were Grade 1 or 2 | participants with at least a TEAE (N = 37): 78% | patients experiencing SAEs (nine SAEs) (N = 37): 8 patients | related TEAE hot flush, participants (N = 37): 13.5% | related TEAE nausea, participants (N = 37): 13.5% | related TEAE neutrophil count decrease, participants (N = 37): 10.8% | relatedness of TEAEs that led to dose interruption (N = 37): None of these were considered related to compound (1-g) | participants with compound (1-g) related TEAEs (N = 37, fifteen participants): 40.5% | participants with Grade 23 TEAEs (N = 37, ten participants): 27.0% | Patients with Any Compound (1-g) related TEAE (Overall (N = 37)): 15 (40.5) n (%) | Patients with Any TEAE (Overall (N = 37)): 29 (78.4) n (%) | TEAE: Abdominal Distension (Overall (N = 37)): 1 (2.7) n (%) | TEAE: Abdominal Pain (Overall (N = 37)): 2 (5.4) n (%) | TEAE: Acute Kidney Injury (Overall (N = 37)): 1 (2.7) n (%) | TEAE: Adrenal Insufficiency (Overall (N = 37)): 1 (2.7) n (%) | TEAE: Alopecia (Overall (N = 37)): 1 (2.7) n (%) | TEAE: Anaemia (Overall (N = 37)): 2 (5.4) n (%) | TEAE: Anxiety (Overall (N = 37)): 1 (2.7) n (%) | TEAE: Arthralgia (Overall (N = 37)): 2 (5.4) n (%) | TEAE: Axillary Vein Thrombosis (Overall (N = 37)): 1 (2.7) n (%) | TEAE: Back Pain (Overall (N = 37)): 3 (8.1) n (%) | TEAE: Basal Cell Carcinoma (Overall (N = 37)): 1 (2.7) n (%) | TEAE: Breast Pain (Overall (N = 37)): 1 (2.7) n (%) | TEAE: Confusional State (Overall (N = 37)): 1 (2.7) n (%) | TEAE: Constipation (Overall (N = 37)): 4 (10.8) n (%) | TEAE: Cough (Overall (N = 37)): 1 (2.7) n (%) | TEAE: Covid-19 Pneumonia (Overall (N = 37)): 1 (2.7) n (%) | TEAE: Dehydration (Overall (N = 37)): 5 (13.5) n (%) | TEAE: Diarrhoea (Overall (N = 37)): 3 (8.1) n (%) | TEAE: Dizziness (Overall (N = 37)): 1 (2.7) n (%) | TEAE: Dysgeusia (Overall (N = 37)): 1 (2.7) n (%) | TEAE: Dyspepsia (Overall (N = 37)): 1 (2.7) n (%) | TEAE: Dyspnoea (Overall (N = 37)): 3 (8.1) n (%) | TEAE: Dysuria (Overall (N = 37)): 2 (5.4) n (%) | TEAE: Eructation (Overall (N = 37)): 1 (2.7) n (%) | TEAE: Fall (Overall (N = 37)): 2 (5.4) n (%) | TEAE: Fatigue (Overall (N = 37)): 6 (16.2) n (%) | TEAE: Flatulence (Overall (N = 37)): 2 (5.4) n (%) | TEAE: Fracture (Overall (N = 37)): 1 (2.7) n (%) | TEAE: Fungal Infection (Overall (N = 37)): 1 (2.7) n (%) | TEAE: Haematoma (Overall (N = 37)): 1 (2.7) n (%) | TEAE: Hot Flush (Overall (N = 37)): 5 (13.5) n (%) | TEAE: Hyperglycaemia (Overall (N = 37)): 1 (2.7) n (%) | TEAE: Hyperhidrosis (Overall (N = 37)): 3 (8.1) n (%) | TEAE: Hypokalaemia (Overall (N = 37)): 2 (5.4) n (%) | TEAE: Hypotension (Overall (N = 37)): 1 (2.7) n (%) | TEAE: Influenza Like Illness (Overall (N = 37)): 1 (2.7) n (%) | TEAE: Insomnia (Overall (N = 37)): 3 (8.1) n (%) | TEAE: Lower Respiratory Tract Congestion (Overall (N = 37)): 1 (2.7) n (%) | TEAE: Lymphocyte Count Decreased (Overall (N = 37)): 1 (2.7) n (%) | TEAE: Muscle Spasm (Overall (N = 37)): 1 (2.7) n (%) | TEAE: Muscular Weakness (Overall (N = 37)): 2 (5.4) n (%) | TEAE: Musculoskeletal Stiffness (Overall (N = 37)): 1 (2.7) n (%) | TEAE: Nail Disorder (Overall (N = 37)): 1 (2.7) n (%) | TEAE: Nasal Congestion (Overall (N = 37)): 1 (2.7) n (%) | TEAE: Nausea (Overall (N = 37)): 7 (18.9) n (%) | TEAE: Neutrophil Count Decreased (Overall (N = 37)): 6 (16.2) n (%) | TEAE: Oedema Peripheral (Overall (N = 37)): 2 (5.4) n (%) | TEAE: Ophthalmic Migraine (Overall (N = 37)): 1 (2.7) n (%) | TEAE: Oral Pain (Overall (N = 37)): 1 (2.7) n (%) | TEAE: Pain In Extremity (Overall (N = 37)): 1 (2.7) n (%) | TEAE: Pharyngitis (Overall (N = 37)): 1 (2.7) n (%) | TEAE: Platelet Count Decreased (Overall (N = 37)): 2 (5.4) n (%) | TEAE: Pleural Effusion (Overall (N = 37)): 1 (2.7) n (%) | TEAE: Pneumonia (Overall (N = 37)): 2 (5.4) n (%) | TEAE: Productive Cough (Overall (N = 37)): 1 (2.7) n (%) | TEAE: Rash Maculo-Papular (Overall (N = 37)): 2 (5.4) n (%) | TEAE: Rhinitis Allergic (Overall (N = 37)): 1 (2.7) n (%) | TEAE: Rib Fracture (Overall (N = 37)): 1 (2.7) n (%) | TEAE: Seizure (Overall (N = 37)): 1 (2.7) n (%) | TEAE: Sepsis (Overall (N = 37)): 1 (2.7) n (%) | TEAE: Tremor (Overall (N = 37)): 2 (5.4) n (%) | TEAE: Upper Respiratory Tract Infection (Overall (N = 37)): 3 (8.1) n (%) | TEAE: Urinary Tract Infection (Overall (N = 37)): 2 (5.4) n (%) | TEAE: Vaginal Haemorrhage (Overall (N = 37)): 1 (2.7) n (%) | TEAE: Vomiting (Overall (N = 37)): 2 (5.4) n (%) | related TEAE: Alopecia (Overall (N = 37)): 1 (2.7) n (%) | related TEAE: Arthralgia (Overall (N = 37)): 1 (2.7) n (%) | related TEAE: Constipation (Overall (N = 37)): 3 (8.1) n (%) | related TEAE: Diarrhea (Overall (N = 37)): 3 (8.1) n (%) | related TEAE: Dysgeusia (Overall (N = 37)): 1 (2.7) n (%) | related TEAE: Eructation (Overall (N = 37)): 1 (2.7) n (%) | related TEAE: Fatigue (Overall (N = 37)): 2 (5.4) n (%) | related TEAE: Flatulence (Overall (N = 37)): 1 (2.7) n (%) | related TEAE: Hyperhidrosis (Overall (N = 37)): 1 (2.7) n (%) | related TEAE: Nail Disorder (Overall (N = 37)): 1 (2.7) n (%) | related TEAE: Platelet Count Decreased (Overall (N = 37)): 1 (2.7) n (%) | related TEAE: Tremor (Overall (N = 37)): 1 (2.7) n (%) | related TEAE: Vomiting (Overall (N = 37)): 1 (2.7) n (%) | Compound (1-g) related TEAEs of CTCAE grade >=3 (all cohorts, N = 37): no Grade≥3 TEAEs were considered as related to compound (1-g); also recorded: No data meets output criteria | participants with TEAEs that led to dose interruption (all cohorts, N = 37): Nine | dose-related trend in incidence of related TEAEs (between 100 mg and 600 mg): No dose-related trends were evident | related TEAE: Hot Flush (human, in vivo): 5 (13.5) n (%) | related TEAE: Nausea (human, in vivo): 5 (13.5) n (%) | related TEAE: Neutrophil Count Decreased (human, in vivo): 4 (10.8) n (%)
